{"source": "paper PMC5855801", "about": "“Benzothiophenone Derivatives Targeting Mutant Forms of Estrogen Receptor-α in Hormone-Resistant Breast Cancers” (International Journal of Molecular Sciences, 2018)", "key": {"[1]": {"test_system": "ERα-dependent genes pS2, PR, Cyclin D1 and CDC2", "assay": "qRT-PCR of ERα-dependent genes in TamR3 cells", "assay_type": "cell-based, human", "settings": "TamR3, 24 h, 1 nM E2", "description": "mRNA levels were analyzed after treatment of MCF7 and TamR3 cells for 24 h with the test compounds as described previously. The fold change in expression of the genes was calculated using the 2^−ΔΔCt method with GAPDH as the internal control."}, "T47D cells": {"test_system": "T47D cells", "assay": "Presto Blue cell viability assay, T47D", "assay_type": "cell-based, human", "settings": "96 h, two-fold dilution starting at 50 µM", "description": "(§1) The Presto Blue cell viability assay was used to assess the growth inhibitory potential of VPC-16606 on ERα^+ T47D, MCF7, ZR75-1 and TamR3 cells. They were treated for 96 h with a two-fold dilution range of the compound starting at 50 µM.\n(§2) Cell viability was determined using the Presto Blue cell viability assay (Thermo Fisher Scientific, Waltham, MA, USA). Cells were seeded in clear bottom black-walled 96-well plates at a density of 5 × 10^3 cells/well in 100 μL of their respective media. On the following day, the cells were treated with test compounds (0.001–22.5 μM) in the presence of 1 nM E2 and incubated at 37 °C. After 96 h, 30 μL of Presto Blue reagent was added and incubated for 10 min at 37 °C. The fluorescent signal from viable cells was measured at 590 nm."}, "ERα LBD": {"biological_target": "T1, ERα LBD (Homo sapiens, UniProt P03372)", "T1 construct": "ERα LBD (amino acids 302–552) was cloned into the pAN4 AviTag™ Vector; made in house", "T1 sequence (P03372 302-552)": "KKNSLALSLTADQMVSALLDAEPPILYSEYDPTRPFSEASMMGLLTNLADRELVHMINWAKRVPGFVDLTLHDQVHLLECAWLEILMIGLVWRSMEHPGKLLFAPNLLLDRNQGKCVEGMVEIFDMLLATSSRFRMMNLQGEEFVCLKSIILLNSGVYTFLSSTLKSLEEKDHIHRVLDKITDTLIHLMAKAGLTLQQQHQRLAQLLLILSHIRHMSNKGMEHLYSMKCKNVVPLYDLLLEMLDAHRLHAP", "assay": "Biolayer interferometry (BLI) direct binding assay", "settings": "biotinylated ERα LBD on streptavidin sensor, 3–100 μM", "description": "The direct binding of small molecules to the ERα-LBD was quantified by BLI using an Octet RED apparatus (Pall ForteBio, Menlo Park, CA, USA). ERα LBD (amino acids 302–552) was cloned into the pAN4 AviTag™ Vector, (Avidity, Aurora, CO, USA). Biotinylated ERα-LBD was purified as described previously. Biotinylated protein (bERα LBD at 0.05 mg/mL) was bound to the super streptavidin sensors (Pall ForteBio) overnight at 4 °C in assay buffer (20 mM Tris, pH 7.5, 500 mM NaCl, 0.2 mM tris(2-carboxyethyl)phosphine TCEP, 0.02 mM E2, 5% glycerol and 5% dimethyl sulfoxide (DMSO). The compounds were dissolved in the assay buffer in a two-fold dilution series ranging from 3.1–100 μM. In all experiments, a known AF2-interacting peptide, PGC-1α (Elim Biopharmaceuticals, Hayward, CA, USA) was used as a control to confirm the functionality of the bERα LBD."}, "MCF7 cells": {"test_system": "MCF7 cells", "assay": "Presto Blue cell viability assay, MCF7", "assay_type": "cell-based, human", "settings": "MCF7, 96 h, two-fold dilution starting at 50 µM", "description": "as §1, §2"}, "ZR75-1 cells": {"test_system": "ZR75-1 cells", "assay": "Presto Blue cell viability assay, ZR75-1", "assay_type": "cell-based, human", "settings": "ZR75-1, 96 h, two-fold dilution starting at 50 µM", "description": "as §1, §2"}, "ERβ LBD": {"biological_target": "ERβ LBD (Homo sapiens, UniProt Q92731)", "sequence (Q92731 264-498 limits assumed, species assumed)": "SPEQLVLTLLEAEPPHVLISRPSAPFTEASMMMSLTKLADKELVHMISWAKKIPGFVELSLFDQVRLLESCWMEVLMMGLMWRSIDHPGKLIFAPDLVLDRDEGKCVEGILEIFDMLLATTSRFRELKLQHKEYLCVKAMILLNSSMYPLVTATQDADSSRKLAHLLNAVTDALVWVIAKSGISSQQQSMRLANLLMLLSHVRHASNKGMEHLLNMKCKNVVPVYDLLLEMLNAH", "assay": "TR-FRET coactivator peptide displacement assay with ERβ-LBD", "assay_type": "biochemical", "settings": "purified ERβ LBD", "source_text": "Given that tamoxifen acts as a pure antagonist of ERβ [34], the effect of VPC-16606 on ERβ and its corresponding implications in breast cancer will also need to be evaluated. Moreover, the role of ERβ in breast cancer biology is not yet clear, with some evidence pointing towards ERβ exerting proliferating effects in the absence of ERα [36].\nSupplementary Materials: Benzothiophenone Derivatives Targeting Mutant Forms of Estrogen Receptor-α in Hormone-Resistant Breast Cancers\nFigure S1. Effect of VPC-16606 on viability of PC3 cells as measured in the Presto Blue assay. […]\nFigure S2. TR-FRET Assay showing displacement of Fluorescein labelled PGC1 α peptide by VPC-16606 upon incubation with ER β-LBD. OHT was used at 1µM. Error bars represent standard deviation for two independent experiments performed in triplicates. […]"}, "[2]": {"test_system": "pS2, PR, Cyclin D1 and CDC2 proteins", "assay": "Western blotting in MCF7 cells", "assay_type": "cell-based, human", "settings": "MCF7, 24 h, effect at higher doses", "description": "(§3) Serum-starved MCF7 and TamR3 cells were seeded onto a six-well plate at a density of 6 × 10^5 cells/well and treated the following day with VPC-16606 in the presence of 1 nM E2. One micromolar OHT was used as the positive control. After 24 h, cells were lysed in 1× radioimmunoprecipitation assay (RIPA) buffer. Twenty five micrograms of protein were loaded into SDS-PAGE gels and transferred to PVDF membranes. Membranes were incubated with pS2, PR Cyclin D1 and CDC2 antibodies or control α-actin antibody. Bound antibodies were detected using HRP-conjugated secondary antibodies. Chemiluminescence was detected with an Amersham ECL detection kit (GE Healthcare Life Sciences, Chicago, IL, USA), and bands were visualised using the G:BOX imager (Syngene, Cambridge, UK)."}, "[3]": {"test_system": "pS2, PR, Cyclin D1 and CDC2 proteins", "assay": "Western blotting in TamR3 cells", "assay_type": "cell-based, human", "settings": "TamR3, 24 h, effect at higher doses", "description": "as §3"}}}
{"smiles": "CC(=O)N(/N=C1\\Sc2c(C)cccc2C1=O)c1ccccc1Cl", "note": "[VPC-16606]", "values": [{"measurement": "mRNA levels of ERα-dependent genes pS2, PR, Cyclin D1 and CDC2", "setting": "[1]", "value": "significantly downregulates"}, {"measurement": "Cell growth (Presto Blue viability)", "setting": "T47D cells", "value": "significantly reduce the growth"}, {"measurement": "Direct binding to ERα LBD (BLI)", "setting": "ERα LBD", "value": "direct reversible interaction"}, {"measurement": "Cell growth (Presto Blue viability)", "setting": "MCF7 cells", "value": "significantly reduce the growth"}, {"measurement": "Cell growth (Presto Blue viability)", "setting": "ZR75-1 cells", "value": "significantly reduce the growth"}, {"measurement": "Displacement of fluorescein labelled PGC1α peptide from ERβ LBD (TR-FRET)", "setting": "ERβ LBD", "value": "resulted in peptide displacement"}, {"measurement": "Expression of pS2, PR, Cyclin D1 and CDC2 proteins (Western blot)", "setting": "[2]", "value": "decreased expression"}, {"measurement": "Expression of pS2, PR, Cyclin D1 and CDC2 proteins (Western blot)", "setting": "[3]", "value": "decreased expression"}]}
